In the supplement of paper PMC10011410:
± gives the standard deviation of the averaged measurements.

Key:
[1] = tested on: U-2 OS; assay: total intracellular glutathione (GSH + GSSG) relative to DMSO (% of control); higher = more glutathione; details: 24 h
In short: (§1)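 Pin-tool treatment of U-2 OS cells began 24 h after seeding at 750 per well in white low-volume 384-well plates, using 20, 10 and 5 μM for most compounds and 0.4% DMSO, for 24 h at 37 °C. For the glutathione plates, GSH/GSSG-Glo reagents were diluted three-fold in PBS, and each plate held GSH standards. Total glutathione, GSSG and viability (CellTiter-Glo) were taken as luminescence on separate plates and are reported relative to vehicle or as a GSH:GSSG ratio after background and row/column correction.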

[2] = tested on: U-2 OS; assay: AUC of culture confluence over time (live-cell imaging) (AUC (confluence % x time)); higher = more confluent culture (less growth inhibition)
In short: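 Live-cell imaging tracked confluence of U-2 OS cells grown in F-12K medium plus 10% FBS. After seeding at 750 cells per well in 384-well plates, cells received compounds by pin tool 24 h later, mostly at 20, 10 and 5 μM, with 0.2% DMSO. Plates stayed at 37 °C and were imaged every 4 h for up to 60 h. Each value is the area under the confluence-versus-time curve.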

[3] = tested on: U-2 OS; assay: relative cell count vs DMSO (cell painting) (fraction of DMSO control); higher = more cells remaining (less cytotoxic); details: 24 h
In short: (§2)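 U-2 OS cells were seeded at about 1,500 per well in 384-well plates and treated by pin tool for 24 h at 37 °C, usually at six 2-fold concentrations from 20 μM to 625 nM. After staining with MitoTracker, concanavalin A, phalloidin, wheat germ agglutinin, Hoechst and SYTO 14, plates were imaged on an Opera Phenix and features were extracted with CellProfiler and normalized to DMSO cells on the same plate. The activity score is the Mahalanobis distance from DMSO wells, and cell count is given relative to DMSO wells. Each value is the mean of four replicate plates.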

[4] = tested on: U-2 OS; assay: cell painting activity score (Mahalanobis distance from DMSO wells); higher = stronger morphological phenotype; details: 24 h
In short: as §2

[5] = tested on: U-2 OS; assay: intracellular GSH:GSSG ratio (calculated); higher = more reduced glutathione pool; details: 24 h
In short: as §1

[6] = tested on: U-2 OS; assay: cell viability (CellTiter-Glo) relative to DMSO (% of control); higher = more viable; details: 24 h
In short: as §1

| Structure (SMILES) | total intracellular glutathione ([1]; 5 µM) | total intracellular glutathione ([1]; 10 µM) | total intracellular glutathione ([1]; 20 µM) | AUC of culture confluence over time ([2]; 5 µM) | AUC of culture confluence over time ([2]; 10 µM) | AUC of culture confluence over time ([2]; 20 µM) | relative cell count ([3]; 0.625 µM) | relative cell count ([3]; 1.25 µM) | relative cell count ([3]; 2.5 µM) | relative cell count ([3]; 5 µM) | relative cell count ([3]; 10 µM) | relative cell count ([3]; 20 µM) | cell painting activity score ([4]; 0.625 µM) | cell painting activity score ([4]; 1.25 µM) | cell painting activity score ([4]; 2.5 µM) | cell painting activity score ([4]; 5 µM) | cell painting activity score ([4]; 10 µM) | cell painting activity score ([4]; 20 µM) | intracellular GSH:GSSG ratio ([5]; 5 µM) | intracellular GSH:GSSG ratio ([5]; 10 µM) | intracellular GSH:GSSG ratio ([5]; 20 µM) | cell viability ([6]; 5 µM) | cell viability ([6]; 10 µM) | cell viability ([6]; 20 µM) | total intracellular glutathione ([1]; 40 µM) | total intracellular glutathione ([1]; 80 µM) | AUC of culture confluence over time ([2]; 40 µM) | AUC of culture confluence over time ([2]; 80 µM) | relative cell count ([3]; 40 µM) | relative cell count ([3]; 80 µM) | cell painting activity score ([4]; 40 µM) | cell painting activity score ([4]; 80 µM) | intracellular GSH:GSSG ratio ([5]; 40 µM) | intracellular GSH:GSSG ratio ([5]; 80 µM) | cell viability ([6]; 40 µM) | cell viability ([6]; 80 µM) | relative cell count ([3]; 0.15624 µM) | relative cell count ([3]; 0.3124 µM) | cell painting activity score ([4]; 0.15624 µM) | cell painting activity score ([4]; 0.3124 µM) |
| --- | --- | --- | --- | --- | --- | --- | --- | --- | --- | --- | --- | --- | --- | --- | --- | --- | --- | --- | --- | --- | --- | --- | --- | --- | --- | --- | --- | --- | --- | --- | --- | --- | --- | --- | --- | --- | --- | --- | --- | --- |
| Cn1c(SC2=CS(=O)(=O)c3ccccc32)nnc1-c1ccc(O)cc1 | 113 ± 51 | 82.1 ± 41 | 48.7 ± 27 | 22.8 | 21.2 | 22.3 | 0.933 | 0.993 | 0.903 | 0.761 | 0.527 | 0.379 | 6.03 | 8.31 | 10.7 | 13.1 | 16.2 | 13.2 | 10.2 | 4.41 | 2.8 | 96.8 ± 4.4 | 66 ± 4.1 | 71.2 ± 4.6 |  |  |  |  |  |  |  |  |  |  |  |  |  |  |  |  |
| CCCCCOc1ccc(/C=C\c2cccc(O)c2C(=O)O)cc1 | 75.1 ± 6.4 | 69.9 ± 7 | 81.1 ± 8.2 | 38.6 | 40.9 | 46.8 | 0.986 | 0.944 | 0.908 | 0.973 | 1.05 | 0.952 | 5.46 | 4.75 | 3.23 | 3.6 | 4.31 | 4.17 | 21.5 | 17.6 | 21.8 | 106 ± 3.3 | 97.9 ± 5.9 | 106 ± 6.7 | 78.4 ± 6.4 | 76.9 ± 9.8 | 34.2 | 44.5 | 0.501 | 0.24 | 6.92 | 17.3 | 14.2 | 35.3 | 104 ± 5.3 | 99 ± 5.7 |  |  |  |  |
| C=CC(=O)N1CCC[C@@H](n2nc(-c3ccc(Oc4ccccc4)cc3)c3c(N)ncnc32)C1 | 89.1 ± 3.4 | 94.8 ± 4.3 | 85.1 ± 9.8 | 37.7 | 27.5 | 20.6 | 1.09 | 1.02 | 1.09 | 1.11 | 1.03 | 1.03 | 5.26 | 6.98 | 6.19 | 8.03 | 8.01 | 12.2 | 21.3 | 20 | 13.5 | 87.8 ± 1.4 | 87.6 ± 4 | 82 ± 3.9 |  |  |  |  |  |  |  |  |  |  |  |  |  |  |  |  |
| O=S1(=O)C=Cc2ccccc21 | 138 ± 4 | 132 ± 8.3 | 141 ± 7.7 | 53.2 | 50.3 | 36.8 | 1.04 | 0.994 | 0.991 | 1.05 | 0.975 | 0.957 | 7.06 | 8.41 | 10.4 | 10.2 | 13.2 | 13.2 | 19.9 | 14.6 | 13.5 | 102 ± 5 | 97.3 ± 2.8 | 103 ± 5.8 |  |  |  |  |  |  |  |  |  |  |  |  |  |  |  |  |
| CNC(=O)Nc1ccc2c(c1)CC[C@@]21OC(=O)N(CC(=O)N(Cc2ccc(F)cc2)[C@@H](C)C(F)(F)F)C1=O | 81.7 ± 3.5 | 74.9 ± 6.2 | 79 ± 7.5 | 44.7 | 44 | 42.6 | 1.04 | 0.976 | 1.04 | 1.02 | 1.05 | 1 | 8.32 | 8.2 | 8.22 | 8.54 | 9.44 | 10.2 | 27.9 | 31.4 | 30.9 | 93.1 ± 1.9 | 83.6 ± 4.3 | 85.3 ± 5 |  |  |  |  |  |  |  |  |  |  |  |  |  |  |  |  |
| O=S1(=O)CC(N2CCCC2)c2ccccc21 (stereo not drawn) | 97.6 ± 3.1 | 98.8 ± 6.1 | 102 ± 5.3 | 49.4 |  |  | 0.972 | 0.969 | 0.957 | 0.962 |  |  | 5.04 | 4.39 | 4.11 | 3.43 |  |  | 30.8 | 37.7 | 28.5 | 103 ± 3.5 | 103 ± 6.5 | 109 ± 6.8 |  |  |  |  |  |  |  |  |  |  |  |  | 0.962 | 0.979 | 4.13 | 3.66 |
| Nc1nc(-c2ccccc2)ns1 | 107 ± 7.8 | 89.3 ± 4 | 117 ± 7.1 | 44.7 | 46.7 | 45.6 | 1 | 0.944 | 0.943 | 0.973 | 1 | 1.01 | 3.85 | 4.11 | 4.04 | 3.13 | 2.93 | 3.84 | 29.7 | 23.5 | 27.1 | 104 ± 5.4 | 104 ± 3 | 101 ± 6.3 |  |  |  |  |  |  |  |  |  |  |  |  |  |  |  |  |
| CC[C@]1(O)C[C@@H]2CN(CCc3c([nH]c4ccccc34)[C@@](C(=O)OC)(c3cc4c(cc3OC)N(C)[C@H]3[C@@](O)(C(=O)OC)[C@H](OC(C)=O)[C@]5(CC)C=CCN6CC[C@]43[C@@H]65)C2)C1 | 60.6 ± 2.1 | 61.6 ± 7.3 | 60.5 ± 3.1 | 18.2 | 17.6 | 20 | 0.236 | 0.246 | 0.221 | 0.223 | 0.24 | 0.255 | 27.2 | 24.9 | 24.9 | 24.2 | 24.4 | 24.4 | 2.94 | 2.94 | 2.96 | 58.9 ± 5.4 | 57.8 ± 8.9 | 57.7 ± 2.6 |  |  |  |  |  |  |  |  |  |  |  |  |  |  |  |  |
| O=C1CC(Nc2ccccc2)C(=O)N1Cc1ccccc1 (stereo not drawn) | 92.2 ± 3.2 | 94.5 ± 4.7 | 102 ± 6.3 | 48 | 38.3 | 43.1 | 1.01 | 1.03 | 1.03 | 0.984 | 0.96 | 1.05 | 3.91 | 3.72 | 3.99 | 4.03 | 4.46 | 3.59 |  | 33.5 | 34.3 | 116 ± 4.3 | 106 ± 4.3 | 100 ± 4.4 |  |  |  |  |  |  |  |  |  |  |  |  |  |  |  |  |
| C=CC(=O)Nc1cccc(Oc2nc(Nc3ccc(N4CCN(C)CC4)cc3OC)ncc2Cl)c1 | 110 ± 7.6 | 102 ± 5.2 | 108 ± 2 | 42.4 | 21.9 | 5.33 | 1.09 | 1 | 0.976 | 0.957 | 0.914 | 0.342 | 5.47 | 8.25 | 10.7 | 9.73 | 12.1 | 14.9 | 24.9 |  |  | 87.2 ± 3.6 | 76 ± 1.4 | 39.8 ± 1.5 |  |  |  |  |  |  |  |  |  |  |  |  |  |  |  |  |
| Cl.Cl.O=C(O)Cn1nnc(-c2ccc(CN(CCCCOc3ccc(CN4CCCC4)cc3)CCc3ccccc3)cc2)n1 | 99.4 ± 2.1 | 97 ± 3.3 | 95.5 ± 4.5 | 48.1 | 49 | 47.5 | 1.2 | 1.1 | 1.12 | 1.13 | 1.14 | 1.01 | 4.83 | 5.3 | 7.08 | 6.29 | 6.41 | 11.1 | 20.2 | 19.8 | 15.4 | 96.5 ± 5.3 | 100 ± 3.5 | 98.8 ± 6.4 | 96.7 ± 2.5 | 72.7 ± 5.7 | 19.9 | 12.3 | 0.376 | 0.0195 | 11.5 | 32 | 14.3 | 14 | 88.9 ± 11 | 30.9 ± 15 |  |  |  |  |
